Data published in US20130059096A1, “METHODS AND COATINGS FOR TREATING BIOFILMS” (President and Fellows of Harvard College, priority 2010, published 2013).

Tests used:
S. aureus (strain SCO1) = test: Biofilm formation on polystyrene, crystal violet staining; assay type: cell-based, Staphylococcus aureus
Experimental: Crystal violet staining Crystal violet staining was done as described previously (O'Toole et al., Mol. […] Wells were stained with 500 μl of 1.0% Crystal-violet dye, rinsed twice with 2 ml double-distilled water and thoroughly dried.
The effect of D-amino acids on biofilm formation by other bacteria was examined. The pathogenic bacterium Staphylococcus aureus forms biofilms on plastic surfaces (Otto, Curr. Top. Microbiol. Immunol. 322:207 (2008)), which can be detected by washing away unbound cells and staining the bound cells with crystal violet. […] Additionally added to the wells were no amino acids (untreated), D-tyrosine (50 μM) or the D-amino acid mixture ([…] each). Cells bound to the polystyrene were visualized by washing away unbound cells and then staining with crystal violet.
(§1) For experiments reported in Table 1, the organism/strain was S.a. Harvard SCO1, the culture medium was TSB and the cell inoculation was at 2×10^9 cfu. For experiments reported in Table 2, the organism/strain was […], the culture medium was M63 and the cell inoculation was at 1.5×10^9 cfu. Biofilm was visualized using the crystal violet method. The data is shown below in Tables 1 and 2:
For experiments reported in Tables 3 and 4, the organism/strain was S.a. Harvard SCO1, the culture medium was TSB and the cell inoculation was at 2×10^9 cfu. Biofilm was visualized using the crystal violet method.

TasA fibers = test: Cell association of TasA fibers by immunogold transmission electron microscopy; assay type: cell-based, Bacillus subtilis; conditions: 0.1 mM, 24-hour-old Δeps cultures treated for 12 hours
Experimental: Transmission electron microscopy and immunolabeling. Samples were diluted with distilled water and adsorbed onto a carbon or formvar/carbon coated grid. The grid surface was made hydrophilic prior to use with glow discharge in a vacuum evaporator. Once the specimen was adsorbed onto the film surface, the excess sample was blotted off on a filter paper (Whatman #1) and the grid was floated on 5 μl of stain solution (1-2% aqueous uranyl acetate) for a few minutes and then blotted off. The samples were dried and examined in a Tecnai™ G^2 Spirit BioTWIN microscope at an accelerating voltage of 80 KV. Images were taken with an AMT 2k CCD camera. […]
The cells were grown to stationary phase with shaking in biofilm-inducing medium in the presence or absence of D-tyrosine (6 μM). […] In contrast, when the cells were washed by centrifugation, resuspended and then examined by fluorescence microscopy, untreated cells (which were often in clumps) were seen to be intensely decorated with TasA-mCherry. […] The localization of unmodified TasA protein was also analyzed by transmission electron microscopy using gold-labeled anti-TasA antibodies. […]

[1] = tested on: Pseudomonas aeruginosa PA14; test: Biofilm formation on polystyrene, crystal violet staining; assay type: cell-based
Experimental: Crystal violet staining Crystal violet staining was done as described previously (O'Toole et al., Mol. Microbiol. 30:295 (1998)) except that the cells were grown in 6-well plates. Wells were stained with 500 μl of 1.0% Crystal-violet dye, rinsed twice with 2 ml double-distilled water and thoroughly dried.
P. aeruginosa strain […] was grown in 12-well polystyrene plates for 48 hours at 30° C. in M63 medium containing glycerol (0.2%) and Casamino acids (20 μg/ml). Additionally added to the wells were no amino acids (untreated), D-tyrosine or the D-amino acid equimolar mixture. Cells bound to the polystyrene were visualized by washing away unbound cells and then staining with crystal violet. Wells were stained with 500 μl of 1.0% Crystal-violet dye, rinsed twice with 2 ml double-distilled water and thoroughly dried.
as §1, with “method.” for “method. The data is shown below in Tables 1 and 2:”

[2] = Staphylococcus aureus, 24 h, read-out: % Inhibition relative to control (0%, <50%, 50-90%, >90%)

N[C@H](Cc1ccc(O)cc1)C(=O)O [D-tyrosine]
Prevention of biofilm formation (FIG. 2E) (S. aureus (strain SCO1); 50 μM, 12-well polystyrene, 24 hours at 37° C., TSB with glucose (0.5%) and NaCl (3%)): highly effective in preventing biofilm formation
inhibition at 0.1 µM (S. aureus (strain SCO1); [2]): 0%
inhibition at 10 µM (S. aureus (strain SCO1); [2]): 0%
inhibition at 100 µM (S. aureus (strain SCO1); [2]): > 90%
inhibition at 500 µM (S. aureus (strain SCO1); [2]): > 90%
Cell association of TasA fibers (FIG. 3D) (TasA fibers): largely undecorated with TasA fibers
Prevention of biofilm formation (FIG. 10) ([1]; 10 μM, strain P014, polystyrene, 48 hours at 30° C., M63 medium): effective in preventing biofilm formation
inhibition at 0.1 µM ([1]; Pseudomonas aeruginosa, PA14, Table 2, 100 nM, 48 h/30° C., polystyrene, M63, read-out: % Inhibition relative to control (0%, <50%, 50-90%, >90%)): 0%
inhibition at 10 µM ([1]; Pseudomonas aeruginosa, PA14, Table 2, 10 μM, 48 h/30° C., polystyrene, M63, read-out: % Inhibition relative to control (0%, <50%, 50-90%, >90%)): > 90%
inhibition at 100 µM ([1]; Pseudomonas aeruginosa, PA14, Table 2, 100 μM, 48 h/30° C., polystyrene, M63, read-out: % Inhibition relative to control (0%, <50%, 50-90%, >90%)): > 90%
inhibition at 500 µM ([1]; Pseudomonas aeruginosa, PA14, Table 2, 500 μM, 48 h/30° C., polystyrene, M63, read-out: % Inhibition relative to control (0%, <50%, 50-90%, >90%)): > 90%
